Experimental data published in patent US12485085B2, “PPAR agonist complex and methods of use” (RODAN & FIELDS, LLC, priority 2019, dated 2025).
Values belong to the molecule of their own block, whether it stands above or below them.

Assays:
EpiDerm skin substitutes = assay: Skin irritation in reconstructed human epidermal model EpiDerm (MTT viability); format: cell-based; set-up: key to Classification: I = irritant; NI = non irritant
Method: Materials and Methods: Thirty p of each sample was applied on top of EpiDerm skin substitutes.
EpiDerm skin substitutes (cat. EPI-200-SIT; Lot #29690) and 5% SDS solution (positive control) were obtained from MatTek (Ashland, Mass.). The test was generally performed according to MatTek protocol. The study was conducted in line with requirements of OECD GD 34 and ECVAM Performance Standard document for applying human skin models to in vitro skin irritation. This protocol utilizes the MTT-based cytotoxicity readout as the experimental endpoint, and thus effectively measures the cytotoxicity of test materials at the level of the skin. MTT [3-(4,5-Dimethylthiazol-2-yl)-2,5-diphenyltetrazolium bromide, a tetrazole] which is yellow, is reduced to purple formazan in living cells and this conversion is measured in a colorimetric assay. MTT assay measures the activity of succinate dehydrogenase, a key enzyme in the respiratory electron transport chain in mitochondria and is a generally-accepted test for measuring cytotoxicity.
Statistically significant variation was defined as ≥15% variation from the water control with p value<0.05 calculated using double-tailed t-test.

IL-8 = IL-8 quantification in EpiDerm-conditioned media (ELISA); format: cell-based, human
Method: The test material was assayed in duplicates. Controls were assayed in triplicates. The negative control was type I sterile water and Finsolv. The positive control was 5% SDS. All incubations were at 37° C. The pre-incubation time 1 (tissue acclimatization time) was overnight and the exposure to samples was 60 min. Tissues were then rinsed with sterile PBS and placed in the new culture medium. Post-incubation time 1 was 24 h, afterward medium was collected and saved at −20° C. for later interleukin quantification, and tissues were placed in new medium. Post-incubation time 2 was 18 h (both post-incubation times are to allow the consequences of the potential irritation to fully develop), MTT test (irritation readout) was 3 h and the extraction was left overnight. The extracted formazan (the product of the MTT conversion, proportional to cell viability) was quantified with Molecular Devices microplate reader MAX190 by colorimetry. Signal quantification was performed using SoftMax3.1.2PRO at 560 nm. For IL-8 quantification (a complementary method for assessing skin irritation), 100 μl samples of media from each well were tested in triplicates using CytoSet antibody pair for ELISA from Thermo Fischer Scientific (Waltham, Mass.; cat. #133301) according to the manufacturer's instructions. […]

PPAR-α = target: T1, PPAR-α (Homo sapiens, UniProt Q07869); assay: PPAR-α luciferase reporter assay in CHO cells
T1 sequence (Q07869 1-468): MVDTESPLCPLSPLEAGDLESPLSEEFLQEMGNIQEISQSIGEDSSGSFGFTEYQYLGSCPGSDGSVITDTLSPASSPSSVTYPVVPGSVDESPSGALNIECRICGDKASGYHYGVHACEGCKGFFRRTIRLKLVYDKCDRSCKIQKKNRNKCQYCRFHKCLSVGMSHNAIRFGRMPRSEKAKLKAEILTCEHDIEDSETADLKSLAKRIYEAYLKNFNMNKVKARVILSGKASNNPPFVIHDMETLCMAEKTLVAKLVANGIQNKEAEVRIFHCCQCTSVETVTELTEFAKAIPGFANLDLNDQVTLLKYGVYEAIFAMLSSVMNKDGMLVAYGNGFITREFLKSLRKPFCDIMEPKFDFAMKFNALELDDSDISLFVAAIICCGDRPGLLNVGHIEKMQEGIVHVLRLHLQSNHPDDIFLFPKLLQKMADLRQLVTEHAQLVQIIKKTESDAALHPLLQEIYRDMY
Method: The objective of this project was to determine the effects of the test materials listed in Table 4 on the transcription regulatory activity of PPARα in a luciferase reporter assay system.
A variety of samples were tested on the effect on the transcription of the PPAR-α controlled luciferase reporter gene.
PPAR-α Luciferase experiment: Compositions were tested at 250 μg/mL Dilution in DMSO (FIG. 1) and 500 μg/mL Dilution in DMSO (FIG. 2).
Table 5 summarizes the effect of different concentrations of test materials on the transcriptional activation of the luciferase reporter gene under the PPAR-α-controlled promoter (2 separate experiments, Experiment 1 wherein sample prep was done in water and Experiment 2 wherein the sample prep was done in DMSO).

CHO cells = assay: Cytotoxicity observed in the PPAR-α luciferase reporter assay; conditions: for Cytotoxic?: Experiment 2 (sample prep in DMSO)
Method: A variety of samples were tested on the effect on the transcription of the PPAR-α controlled luciferase reporter gene. CHO cells were utilized and are an epithelial cell line derived from the ovary of the Chinese hamster.

[1] = system: C57BL/6 mouse melanocytes; assay: Melanin content in melanocytes and melanocyte-conditioned medium; format: cell-based; conditions: 3 days; for % Control (extracellular melanin): melanocyte-conditioned medium
Method: Materials & Methods: Test material was dissolved at 100 mg/ml in DMSO the day of the experiment, diluted in sterile distilled water and samples were added in duplicates to confluent cultures of C57BL/6 mouse melanocytes well plate format. The cell growth medium was Opti-MEM supplemented with 7% horse serum (ThermoFisher Scientific, Waltham, Mass.) and antibiotics. Medium was freshly changed on Day 0 of the experiment. Cells were grown in the presence of the test material for 3 days, afterward they were frozen at −20° C., lysed in Solvable (Perkin Elmer, Waltham, Mass.) at 37° C. for 60 min. and colorimetrically quantified at 490 nm with Molecular Devices (Sunnyvale, Calif.) microplate reader MAX190. Kojic acid (100 μg/ml and 200 μg/ml) was the positive control. Statistically significant variation was defined as >20% variation from the water control with p value<0.05 calculated with double-tailed t-test.
Test materials were added to exponentially-growing cultures and the experiment was terminated 3 days later.

[2] = Lipophilic oxygen radical absorbance capacity (Lipo-ORAC) assay; format: biochemical; conditions: expressed in Trolox equivalents
Method: Because of its damaging effect on vital biological systems, oxidative stress has been implicated in more than 100 diseases and aging. The objective of this test was to measure the antioxidant potential of the test materials listed in Table I using lipophilic oxygen radical absorbance capacity (Lipo-ORAC) assay (Stock solutions were prepared in acetone at 2% and diluted in 7% RMCD immediately before the experiment). Lipo-ORAC assay measures the ability of antioxidant compounds to inhibit the decline in disodium fluorescein (FL) fluorescence that is induced by peroxyl radical generator, 2′,2′-Azobis (2-amidinopropane) dihydrochloride (AAPH). The peroxyl radical is one of the most common reactive oxygen species (ROS) found in the body. This procedure incorporates random methylated beta-cyclodextrin as a solubility enhancer and allows for quantification of antioxidant potential of lipophilic samples, using Trolox as standard. Applied Biosystems Cytofluor 4000 fluorometer and software were used for the quantification of this assay.

PPAR-γ = target: T2, PPAR-γ (Homo sapiens, UniProt P37231); assay: PPAR-γ luciferase experiment; format: cell-based; conditions: statement of the description
T2 sequence (P37231 1-505): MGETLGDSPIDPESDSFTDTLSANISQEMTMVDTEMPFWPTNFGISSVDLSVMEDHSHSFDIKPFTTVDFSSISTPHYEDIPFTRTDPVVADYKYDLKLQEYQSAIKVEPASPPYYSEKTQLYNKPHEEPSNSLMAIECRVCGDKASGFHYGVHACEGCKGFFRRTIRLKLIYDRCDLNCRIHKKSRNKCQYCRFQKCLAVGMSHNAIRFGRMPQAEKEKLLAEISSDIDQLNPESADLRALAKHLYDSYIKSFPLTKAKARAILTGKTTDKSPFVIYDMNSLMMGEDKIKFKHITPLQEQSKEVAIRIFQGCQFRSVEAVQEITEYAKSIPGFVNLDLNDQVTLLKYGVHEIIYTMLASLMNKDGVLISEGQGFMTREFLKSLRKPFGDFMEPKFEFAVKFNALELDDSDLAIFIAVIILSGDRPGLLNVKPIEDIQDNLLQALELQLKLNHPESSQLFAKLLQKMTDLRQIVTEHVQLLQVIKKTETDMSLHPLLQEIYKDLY
Method: PPAR-γ Luciferase experiment: Compositions were tested at 50 μg/mL Dilution in DMSO (FIG. 3) and 200 μg/mL Dilution in DMSO (FIG. 4). Positive control: Rosiglitazone at 300 nM potent and selective agonist of PPARγ.

[3] = Experiment 2 (sample prep in DMSO), 250 μg/mL
[4] = Experiment 2 (sample prep in DMSO), 500 μg/mL
[5] = Experiment 1 (sample prep in water), 300 nM
[6] = Experiment 2 (sample prep in DMSO), 300 nM

Molecule: Cc1nc(-c2ccc(C(F)(F)F)cc2)sc1C(=O)NCc1ccc(OC(C)(C)C(=O)O)cc1 [GW590735]
% Control (H2O) (PPAR-α; [5]): 365%
Chemoluminescence (PPAR-α; [5]): 344 arbitrary units
% Control (H2O) (PPAR-α; [6]): 341%
Chemoluminescence (PPAR-α; [6]): 19 arbitrary units
effect on transcriptional activation of the luciferase reporter gene under the PPAR-α-controlled promoter (in words) (PPAR-α; summary of Table 5): strongly upregulated

Molecule: O=c1cc(CO)occ1O [Kojic acid]
% Control (intracellular melanin) ([1]; 100 μg/ml): 92%
% Control (extracellular melanin) ([1]; 100 μg/ml): 90%
% Control (intracellular melanin) ([1]; 200 μg/ml): 86%
% Control (extracellular melanin) ([1]; 200 μg/ml): 84%

Molecule: CCCCCCCCC(CCCCCC)C(=O)OC[C@H](OC(=O)C(CCCCCC)CCCCCCCC)[C@H]1OC(=O)C(OC(=O)C(CCCCCC)CCCCCCCC)=C1OC(=O)C(CCCCCC)CCCCCCCC (some centres unmarked) [Tetrahexyldecyl (THD) ascorbate]
ORAC (Lipo-ORAC score) [2]: 0 μmoles TE/g
ORAC (Lipo-ORAC score) ([2]; listed as THD ascorbate): no activity

Molecule: Cc1c(C)c2c(c(C)c1O)CCC(C)(C(=O)O)O2 (centres unmarked) [Trolox]
ORAC (Lipo-ORAC score) [2]: 3985 μmoles TE/g

Molecule: Octadecenedioic Acid [ODA]
% Control (H2O) (PPAR-α; [3]): 278%
Chemoluminescence (PPAR-α; [3]): 15 arbitrary units
% Control (H2O) (PPAR-α; [4]): 97%
Chemoluminescence (PPAR-α; [4]): 5 arbitrary units

Continued, in another order:

decrease of the IL-8 level (IL-8): 55%
Molecule: CCCCCCCCCCCCOS(=O)(=O)[O-].[Na+] [5% SDS]
cells viable (EpiDerm skin substitutes; MTT): 12%
Mean of OD (EpiDerm skin substitutes; MTT formazan at 560 nm, 60 min exposure, RFV3 at 10% in Finsolv): 0.038
Mean of Viability [% water] (EpiDerm skin substitutes; MTT, 60 min exposure, RFV3 at 10% in Finsolv): 2 % water
Classification (EpiDerm skin substitutes; RFV3 at 10% in Finsolv): I

% Control (H2O) (PPAR-α; [3]): 45%
Chemoluminescence (PPAR-α; [3]): 2 arbitrary units
% Control (H2O) (PPAR-α; [4]): 41%
Chemoluminescence (PPAR-α; [4]): 2 arbitrary units
Molecule: CCCCCCCCC(O)CCCCCCCCC(=O)O (centres unmarked) [10HSA, Hydroxystearic Acid]
Cytotoxic? (CHO cells; 250 μg/mL): Yes
Cytotoxic? (CHO cells; 500 μg/mL): Yes

PPARγ agonist activity (in words) (PPAR-γ): moderate PPARγ agonist
% Control (H2O) (PPAR-α; [3]): 145%
Chemoluminescence (PPAR-α; [3]): 8 arbitrary units
% Control (H2O) (PPAR-α; [4]): 24%
Chemoluminescence (PPAR-α; [4]): 1 arbitrary units
PPAR / PPARα agonist activity (in words) (PPAR-α; statements of the description): very mild PPARα agonist
Molecule: CCCCCC/C=C/C#CCCCCCCCC(=O)O [XA, (E)-Octadec-11-en-9-ynoic acid]
cytotoxicity (in words) (CHO cells; Example 8, FIG. 9, 500 μg/mL in DMSO): cytotoxic
Cytotoxic? (CHO cells; 500 μg/mL): Yes
